Data set [1] deals with T1, Rat Plasma VAP-1 (Rattus norvegicus, UniProt O08590).
T1 construct: from tissue; host or cells: plasma of SD male rats (7-12 weeks old) after oral dosing
T1 sequence (O08590 28-763 limits assumed): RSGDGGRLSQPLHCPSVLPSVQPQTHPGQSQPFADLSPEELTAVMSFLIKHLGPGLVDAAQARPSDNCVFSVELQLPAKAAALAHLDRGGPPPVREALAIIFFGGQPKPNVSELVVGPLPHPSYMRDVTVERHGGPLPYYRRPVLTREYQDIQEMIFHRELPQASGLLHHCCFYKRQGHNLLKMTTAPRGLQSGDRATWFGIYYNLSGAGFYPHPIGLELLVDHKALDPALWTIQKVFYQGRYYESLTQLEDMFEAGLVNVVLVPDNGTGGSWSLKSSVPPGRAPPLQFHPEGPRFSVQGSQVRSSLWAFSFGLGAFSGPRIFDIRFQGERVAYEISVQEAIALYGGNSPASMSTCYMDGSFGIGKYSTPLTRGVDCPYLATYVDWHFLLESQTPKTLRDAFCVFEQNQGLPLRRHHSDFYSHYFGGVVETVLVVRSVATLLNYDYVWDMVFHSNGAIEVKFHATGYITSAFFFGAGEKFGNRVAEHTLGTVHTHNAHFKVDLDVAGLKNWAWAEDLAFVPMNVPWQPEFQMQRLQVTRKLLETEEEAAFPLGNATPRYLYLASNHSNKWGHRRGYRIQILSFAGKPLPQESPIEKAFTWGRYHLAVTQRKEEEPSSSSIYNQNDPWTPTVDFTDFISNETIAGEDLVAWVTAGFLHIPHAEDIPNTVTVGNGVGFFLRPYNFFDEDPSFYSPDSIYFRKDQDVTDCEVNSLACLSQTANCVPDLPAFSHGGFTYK
Put plainly: (Ex vivo) rat plasma VAP-1 inhibition test after oral administration of the compound. The format is in vivo. Particulars: 3 hours after oral administration, SD male rats, read-out: inhibition ratio (plasma VAP-1, ex vivo). A digest of the protocol: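 Male SD rats, 7–12 weeks, non-fasted, dosed orally at 0.3–10 mg/kg; jugular blood taken predose and 3, 8 and 24 h after dosing. Plasma incubated with 2.5 μM 14C-benzylamine for 3 h at 37 °C; extracted product counted by scintillation. Inhibition expressed relative to each animal's predose plasma activity.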

The subject of data set [2] is Human normal glomerular microvascular endothelial cells. The format is cell-based. The following applies: 2 days, 100 nM. On the procedure: The Cytotoxicity Inhibition Test in Human Normal Glomerular Microvascular Endothelial Cells
(§1) Human normal glomerular microvascular endothelial cells were plated at 6000 cells/well in a collagen-coated 96-well culture plate. After one day of culture, the medium at each well was completely removed by aspiration and replaced with 50 μL of the compound solution diluted with the basal medium. The basal medium containing 0.1% DMSO was added to control wells. Following, the plate was incubated in CO2 incubator for 30 minutes. Fifty microliter of 2 mM methylamine diluted with the basal medium was added (final concentration 1 mM) to each negative control well (0% inhibition) as well as the compound-containing well, and 50 μL of the basal medium was added to each positive control well (100% inhibition). The plate was incubated in CO2 incubator for 2 days. Ten microliter of CCK-8 was added to each well and the mixtures were incubated in a plate incubator at 37° C. for approximately 2 hours after stirring with a plate shaker. The absorbance of the mixtures at 450 nm was measured with a multiplate reader. The cytotoxicity inhibition ratio of the compound was calculated from the following equation. Inhibition ratio={[Average absorbance of the compound-containing wells]−[Average absorbance of negative control wells]}/{[Average absorbance of positive control wells]−[Average absorbance of negative control wells]}×100

Data set [3] concerns Human normal hepatic sinusoid-like microvascular endothelial cells. The format is cell-based. The following applies: 2 days, 300 nM. On the procedure: The Cytotoxicity Inhibition Test in Human Normal Hepatic Sinusoid-Like Microvascular Endothelial Cells
as §1, with “hepatic sinusoid-like” for “glomerular”

The target in data set [4] is T2, Human VAP-1 enzyme (Homo sapiens, UniProt Q16853).
T2 construct: purchased R&D Systems, Inc
T2 sequence (Q16853 1-763): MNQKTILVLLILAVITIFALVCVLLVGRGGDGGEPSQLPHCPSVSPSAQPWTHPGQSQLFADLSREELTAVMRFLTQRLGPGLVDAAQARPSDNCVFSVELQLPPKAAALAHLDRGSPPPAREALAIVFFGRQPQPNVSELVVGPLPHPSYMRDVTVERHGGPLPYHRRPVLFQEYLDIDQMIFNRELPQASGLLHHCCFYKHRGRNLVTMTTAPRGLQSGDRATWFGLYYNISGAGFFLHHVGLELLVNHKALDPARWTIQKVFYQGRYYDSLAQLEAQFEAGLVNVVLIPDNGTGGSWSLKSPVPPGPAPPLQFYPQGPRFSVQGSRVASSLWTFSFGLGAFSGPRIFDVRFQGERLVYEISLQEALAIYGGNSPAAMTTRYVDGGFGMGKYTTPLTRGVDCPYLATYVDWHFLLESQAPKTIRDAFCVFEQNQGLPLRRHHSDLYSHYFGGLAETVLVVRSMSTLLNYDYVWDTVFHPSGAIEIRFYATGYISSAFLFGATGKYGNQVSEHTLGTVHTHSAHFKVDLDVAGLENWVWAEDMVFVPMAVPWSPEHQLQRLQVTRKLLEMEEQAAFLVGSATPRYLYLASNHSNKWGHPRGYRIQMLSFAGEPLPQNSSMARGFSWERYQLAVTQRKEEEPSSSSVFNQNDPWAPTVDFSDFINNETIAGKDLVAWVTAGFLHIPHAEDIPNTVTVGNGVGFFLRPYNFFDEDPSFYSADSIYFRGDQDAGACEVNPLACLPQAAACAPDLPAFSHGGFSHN
Put plainly: Human VAP-1 enzyme inhibition test. The format is biochemical. The following applies: 1 h; compound 30 nM; 14C-benzylamine 100 μM; read-out: inhibition ratio (human VAP-1 enzyme). Put shortly: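 Recombinant human VAP-1 pre-incubated 20 min at room temperature with compound in DMSO, then reacted with 14C-benzylamine (100 μM final) 1 h at 37 °C. Citric acid stop; oxidized product extracted into toluene/ethyl acetate and counted by liquid scintillation. Inhibition ratio relative to DMSO-only activity.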

On to `CCON=C1CN(c2ncc(-c3cccc(COC(=O)NC(=N)N)c3F)cn2)C1` [Example 2, 3-{2-[3-(Ethoxyimino)azetidin-1-yl]pyrimidin-5-yl}-2-fluorobenzyl carbamimidoylcarbamate], for which the inhibition in vivo at 0.3 mg/kg in data set [1] was at least 50%. Besides, the cytotoxicity inhibition ratio in data set [2] and in data set [3] was at least 50% throughout.

On to `[2H]C([2H])([2H])ON=C1CN(c2ncc(-c3cccc(COC(=O)NC(=N)N)c3F)cn2)C1` [Example 3, 2-Fluoro-3-(2-{3-[(methoxy-d3)imino]azetidin-1-yl}pyrimidin-5-yl)benzyl carbamimidoylcarbamate], for which the inhibition in vivo at 0.3 mg/kg in data set [1] was at least 50%. For the same molecule, the cytotoxicity inhibition ratio in data set [2] and in data set [3] was at least 50% throughout. In addition, the inhibition at 0.03 µM in data set [4] was at least 50%.

With `N=C(N)NC(=O)OCc1cccc(-c2cnc(N3CC(=NOCCF)C3)nc2)c1F` [Example 5, 2-Fluoro-3-(2-{3-[(2-fluoroethoxy)imino]azetidin-1-yl}pyrimidin-5-yl)benzyl carbamimidoylcarbamate], in data set [1], the inhibition in vivo at 0.3 mg/kg is at least 50%. The cytotoxicity inhibition ratio in data set [2] and in data set [3] was at least 50% each time.

`CC(=O)OC1CC(ON=C2CN(c3ncc(-c4cccc(COC(=O)NC(=N)N)c4F)cn3)C2)C1` (stereo not shown) [Example 133, 3-[({1-[5-(3-{[(Carbamimidoylcarbamoyl)oxy]methyl}-2-fluorophenyl)pyrimidin-2-yl]azetidin-3-ylidene}amino)oxy]cyclobutyl acetate]: the inhibition in vivo at 0.3 mg/kg in data set [1] is at least 50%. The cytotoxicity inhibition ratio in data set [2] and in data set [3] was at least 50% throughout. The inhibition at 0.03 µM in data set [4] was at least 50%.

As to `N=C(N)NC(=O)OCc1cccc(-c2cnc(N3CC(=NOC4CC(O)C4)C3)nc2)c1F` (stereo not shown) [Example 134, 2-Fluoro-3-(2-{3-[(3-hydroxycyclobutoxy)imino]azetidin-1-yl}pyrimidin-5-yl)benzyl carbamimidoylcarbamate], the inhibition in vivo at 0.3 mg/kg in data set [1] is at least 50%. The cytotoxicity inhibition ratio in data set [2] and in data set [3] was at least 50% each time. Also, in data set [4], the inhibition at 0.03 µM is at least 50%.

For the molecule `N=C(N)NC(=O)OCc1cccc(-c2cnc(N3CCC(=NOCc4cn[nH]c4)CC3)nc2)c1F` [Example 173, 3-[2-(4-{[(1H-pyrazol-4-yl)methoxy]imino}piperidin-1-yl)pyrimidin-5-yl]-2-fluorobenzyl carbamimidoylcarbamate], the inhibition in vivo at 0.3 mg/kg in data set [1] is at least 50%. Moreover, the inhibition at 0.03 µM in data set [4] is at least 50%.

Turning to `Cn1cc(CON=C2CCN(c3ncc(-c4cccc(COC(=O)NC(=N)N)c4F)cn3)CC2)cn1` [Example 174, 2-Fluoro-3-[2-(4-{[(1-methyl-1H-pyrazol-4-yl)methoxy]imino}piperidin-1-yl)pyrimidin-5-yl]benzyl carbamimidoylcarbamate], the inhibition in vivo at 0.3 mg/kg in data set [1] is at least 50%. In data set [4], the inhibition at 0.03 µM is at least 50%.

Take `N=C(N)NC(=O)OCc1cccc(-c2cnc(N3CCC(=NOCCn4cccn4)CC3)nc2)c1F` [Example 175, 3-[2-(4-{[2-(1H-pyrazol-1-yl)ethoxy]imino}piperidin-1-yl)pyrimidin-5-yl]-2-fluorobenzyl carbamimidoylcarbamate]: the inhibition in vivo at 0.3 mg/kg in data set [1] is at least 50%. Moreover, the inhibition at 0.03 µM in data set [4] is at least 50%.

As for `N=C(N)NC(=O)OCc1cccc(-c2cnc(N3CCC(=NOCc4ccncc4)CC3)nc2)c1F` [Example 176, 2-Fluoro-3-(2-{4-[(pyridin-4-ylmethoxy)imino]piperidin-1-yl}pyrimidin-5-yl)benzyl carbamimidoylcarbamate], the inhibition in vivo at 0.3 mg/kg in data set [1] is at least 50%. The inhibition at 0.03 µM in data set [4] is at least 50%.

Regarding `N=C(N)NC(=O)OCc1cccc(-c2cnc(N3CCC(=NOCCN4C(=O)CCC4=O)CC3)nc2)c1F` [Example 177, 3-[2-(4-{[2-(2,5-Dioxopyrrolidin-1-yl)ethoxy]imino}piperidin-1-yl)pyrimidin-5-yl]-2-fluorobenzyl carbamimidoylcarbamate], the inhibition in vivo at 0.3 mg/kg in data set [1] is at least 50%. Further, the inhibition at 0.03 µM in data set [4] is at least 50%.

As for `N=C(N)NC(=O)OCc1cccc(-c2cnc(N3CCC(=NOCCN4CCCC4=O)CC3)nc2)c1F` [Example 178, 2-Fluoro-3-[2-(4-{[2-(2-oxopyrrolidin-1-yl)ethoxy]imino}piperidin-1-yl)pyrimidin-5-yl]benzyl carbamimidoylcarbamate], the inhibition in vivo at 0.3 mg/kg in data set [1] is at least 50%. The inhibition at 0.03 µM in data set [4] was at least 50%.

For the molecule `N=C(N)NC(=O)OCc1cccc(-c2cnc(N3CCC(=NOc4cncnc4)CC3)nc2)c1F` [Example 182, 2-Fluoro-3-(2-{4-[(pyrimidin-5-yloxy)imino]piperidin-1-yl}pyrimidin-5-yl)benzyl carbamimidoylcarbamate], the inhibition in vivo at 0.3 mg/kg in data set [1] is at least 50%. In addition, the inhibition at 0.03 µM in data set [4] was at least 50%.

For the molecule `N=C(N)NC(=O)OCc1cccc(-c2cnc(N3CCC(=NOc4ncccn4)CC3)nc2)c1F` [Example 183, 2-Fluoro-3-(2-{4-[(pyrimidin-2-yloxy)imino]piperidin-1-yl}pyrimidin-5-yl)benzyl carbamimidoylcarbamate], the inhibition in vivo at 0.3 mg/kg in data set [1] is at least 50%. Also, in data set [4], the inhibition at 0.03 µM was at least 50%.

These data come from patent US10759781B2, “Substituted guanidine derivatives” (UBE INDUSTRIES, LTD., priority 2015, dated 2020).
